# Source: patent US7442801B2, “Pyrazole compound” (Sumitomo Chemical Company, Limited, priority 2003, dated 2008)
# System: Tetranychus urticae
# Experiment: Test Example 1: Controlling Rate against Tetranychus urticae on brush bean, spray
# Format: in vivo
# Settings: 500 ppm, 30 ml sprayed on brush bean (Phaseolus vulgaris) with female adults
# Procedure: Each of the present compounds (2) to (15), (17) to (33), (36) to (40) and the comparative compound described below was formulated according to Formulation Example 5, and each formulations was diluted with water so that the concentration of the present compound or the comparative compound came to 500 ppm.
# About twenty female adults of Tetranychus urticae were set free on brush bean (Phaseolus vulgaris) in the primary leaf stage, which had been potted in a plastic cup for 7 days after the seeding. After 1 day, a 30 ml of the diluted formulation described-above was sprayed over the plant. On the 8th and 13th day after the application, the numbers of lived Tetranychus urticae on the leaf of brush bean plant were examined, and the Controlling Rates were calculated by the following scheme. Controlling Rate=100×{1−(a number of lived Tetranychus urticae in the treatment)/(a number of lived Tetranychus urticae in the non-treatment)}
smiles,measurement,setting,value
Cc1nn(C)c(Oc2ccc(Oc3ccc(C(F)(F)F)cc3)cc2)c1C=NOCc1ccccc1 [comparative compound],Controlling Rate,8th day after the application,less than 30%
same,Controlling Rate,13th day after the application,less than 30%
